Assay results published in ChEMBL document CHEMBL2413072, “Synthesis and in vitro anticancer studies of novel C-2 arylidene congeners of lantadenes” (2013).

Tests used:
Assay type in all cases: functional
OVCAR-3 [1] = experiment: Growth inhibition of human OVCAR3 cells assessed as cell growth at 10^-7 M by sulforhodamine B assay; settings: read-out: Activity
HOP-92 = experiment: Growth inhibition of human HOP92 cells assessed as cell growth at 10^-6 M by sulforhodamine B assay; settings: read-out: Activity
SF-295 = experiment: Growth inhibition of human SF295 cells assessed as cell growth at 10^-6 M by sulforhodamine B assay; settings: read-out: Activity
[2] = Growth inhibition of human NCI-ADR-RES cells assessed as cell growth at 10^-4 M by sulforhodamine B assay; settings: read-out: Activity
ACHN [3] = experiment: Growth inhibition of human ACHN cells assessed as cell growth at 10^-6 M by sulforhodamine B assay; settings: read-out: Activity
SK-MEL-28 [4] = experiment: Growth inhibition of human SK-MEL-28 cells assessed as cell growth at 10^-4 M by sulforhodamine B assay; settings: read-out: Activity
RPMI-8226 = experiment: Growth inhibition of human RPMI8226 cells assessed as cell growth at 10^-6 M by sulforhodamine B assay; settings: read-out: Activity
NCI-H322M = experiment: Growth inhibition of human NCI-H322M cells assessed as cell growth at 10^-6 M by sulforhodamine B assay; settings: read-out: Activity
NCI-H522 = experiment: Growth inhibition of human NCI-H522 cells assessed as cell growth at 10^-8 M by sulforhodamine B assay; settings: read-out: Activity
HL-60(TB) = experiment: Growth inhibition of human HL-60(TB) cells assessed as cell growth at 10^-6 M by sulforhodamine B assay; settings: read-out: Activity
LOX IMVI [5] = experiment: Growth inhibition of human LOXIMVI cells assessed as cell growth at 10^-6 M by sulforhodamine B assay; settings: read-out: Activity
NCI-H226 = experiment: Growth inhibition of human NCI-H226 cells assessed as cell growth at 10^-7 M by sulforhodamine B assay; settings: read-out: Activity
RXF 393 [6] = experiment: Growth inhibition of human RXF393 cells by sulforhodamine B assay
MDA-MB-468 = experiment: Growth inhibition of human MDA-MB-468 cells assessed as cell growth at 10^-4 M by sulforhodamine B assay; settings: read-out: Activity
786-0 [7] = experiment: Growth inhibition of human 786-0 cells assessed as cell growth at 10^-7 M by sulforhodamine B assay; settings: read-out: Activity
SR = experiment: Growth inhibition of human SR cells assessed as cell growth at 10^-7 M by sulforhodamine B assay; settings: read-out: Activity
RXF 393 [8] = experiment: Growth inhibition of human RXF393 cells assessed as cell growth at 10^-4 M by sulforhodamine B assay; settings: read-out: Activity
OVCAR-3 [9] = experiment: Growth inhibition of human OVCAR3 cells assessed as cell growth at 10^-8 M by sulforhodamine B assay; settings: read-out: Activity
ACHN [10] = experiment: Growth inhibition of human ACHN cells by sulforhodamine B assay
BT-549 = experiment: Growth inhibition of human BT549 cells assessed as cell growth at 10^-4 M by sulforhodamine B assay; settings: read-out: Activity
SK-OV-3 = experiment: Growth inhibition of human SKOV3 cells assessed as cell growth at 10^-8 M by sulforhodamine B assay; settings: read-out: Activity
UACC-257 = experiment: Growth inhibition of human UACC257 cells assessed as cell growth at 10^-7 M by sulforhodamine B assay; settings: read-out: Activity
786-0 [11] = experiment: Growth inhibition of human 786-0 cells by sulforhodamine B assay
A498 = experiment: Growth inhibition of human A498 cells assessed as cell growth at 10^-8 M by sulforhodamine B assay; settings: read-out: Activity
RXF 393 [12] = experiment: Growth inhibition of human RXF393 cells assessed as cell growth at 10^-8 M by sulforhodamine B assay; settings: read-out: Activity
SK-MEL-28 [13] = experiment: Growth inhibition of human SK-MEL-28 cells assessed as cell growth at 10^-7 M by sulforhodamine B assay; settings: read-out: Activity
IGROV-1 = experiment: Growth inhibition of human IGROV1 cells assessed as cell growth at 10^-7 M by sulforhodamine B assay; settings: read-out: Activity
OVCAR-5 = experiment: Growth inhibition of human OVCAR5 cells assessed as cell growth at 10^-8 M by sulforhodamine B assay; settings: read-out: Activity
CCRF-CEM = experiment: Growth inhibition of human CCRF-CEM cells assessed as cell growth at 10^-4 M by sulforhodamine B assay; settings: read-out: Activity
LOX IMVI [14] = experiment: Growth inhibition of human LOXIMVI cells assessed as cell growth at 10^-4 M by sulforhodamine B assay; settings: read-out: Activity
K562 = experiment: Growth inhibition of human K562 cells assessed as cell growth at 10^-7 M by sulforhodamine B assay; settings: read-out: Activity
UACC-62 = experiment: Growth inhibition of human UACC62 cells assessed as cell growth at 10^-8 M by sulforhodamine B assay; settings: read-out: Activity
NCI-H23 = experiment: Growth inhibition of human NCI-H23 cells assessed as cell growth at 10^-4 M by sulforhodamine B assay; settings: read-out: Activity
M14 = experiment: Growth inhibition of human M14 cells assessed as cell growth at 10^-6 M by sulforhodamine B assay; settings: read-out: Activity
[15] = Growth inhibition of human NCI-ADR-RES cells assessed as cell growth at 10^-6 M by sulforhodamine B assay; settings: read-out: Activity
[16] = read-out: LC50 (the source's name)
[17] = read-out: pLC50 (the source's name) (converted)

Work on `CC(C)=CC(=O)O[C@@H]1CC(C)(C)C[C@H]2C3=CC[C@@H]4[C@@]5(C)CCC(=O)C(C)(C)[C@@H]5CC[C@@]4(C)[C@]3(C)CC[C@@]12C(=O)O` yielded a growth at 0.1 µM (OVCAR-3 [1]) of 100%, a growth at 1 µM (HOP-92) of 69% and a growth at 1 µM (SF-295) of 63%. It also gave a growth at 100 µM [2] of 14%, a growth at 1 µM (ACHN [3]) of 73% and a growth at 100 µM (SK-MEL-28 [4]) of 6%. It also gave a growth at 1 µM (RPMI-8226) of 58%, a growth at 1 µM (NCI-H322M) of 83% and a growth at 0.01 µM (NCI-H522) of 102%. For the same compound, the growth at 1 µM (HL-60(TB)) was 94%, the growth at 1 µM (LOX IMVI [5]) was 87% and the growth at 0.1 µM (NCI-H226) was 87%. For the same compound, the GI50 (RXF 393 [6]; read-out: GI50) was 3.31 µM, the CC50 (RXF 393 [6]; [16]) was 63.5 µM and the TGI (RXF 393 [6]; read-out: TGI) was 16.3 µM. For the same compound, the GI50 (RXF 393 [6]; read-out: pGI50 (converted)) was 3.31 µM, the CC50 (RXF 393 [6]; [17]) was 63.1 µM and the TGI (RXF 393 [6]; read-out: pTGI (converted)) was 16.2 µM. The growth at 100 µM (MDA-MB-468) was -37%, the growth at 0.1 µM (786-0 [7]) was 99% and the growth at 0.1 µM (SR) was 99%. For the same compound, the growth at 100 µM (RXF 393 [8]) was -67%, the growth at 0.01 µM (OVCAR-3 [9]) was 104% and the GI50 (ACHN [10]; read-out: GI50) was 2.99 µM. For the same compound, the CC50 (ACHN [10]; [16]) was > 100 µM, the TGI (ACHN [10]; read-out: TGI) was 27.9 µM and the GI50 (ACHN [10]; read-out: pGI50 (converted)) was 3.02 µM. For the same compound, the CC50 (ACHN [10]; [17]) was > 100 µM, the TGI (ACHN [10]; read-out: pTGI (converted)) was 28.2 µM and the growth at 100 µM (BT-549) was -47%. It also gave a growth at 0.01 µM (SK-OV-3) of 106%, a growth at 0.1 µM (UACC-257) of 93% and a GI50 (786-0 [11]; read-out: GI50) of 3.69 µM. The CC50 (786-0 [11]; [16]) was > 100 µM, the TGI (786-0 [11]; read-out: TGI) was 20.2 µM and the GI50 (786-0 [11]; read-out: pGI50 (converted)) was 3.72 µM. For the same compound, the CC50 (786-0 [11]; [17]) was > 100 µM, the TGI (786-0 [11]; read-out: pTGI (converted)) was 20 µM and the growth at 0.01 µM (A498) was 86%. The growth at 0.01 µM (RXF 393 [12]) was 97%, the growth at 0.1 µM (SK-MEL-28 [13]) was 99% and the growth at 0.1 µM (IGROV-1) was 108%. For the same compound, the growth at 0.01 µM (OVCAR-5) was 94%, the growth at 100 µM (CCRF-CEM) was -14% and the growth at 100 µM (LOX IMVI [14]) was -47%. The growth at 0.1 µM (K562) was 95%, the growth at 0.01 µM (UACC-62) was 102% and the growth at 100 µM (NCI-H23) was -10%. The growth at 1 µM (M14) was 87% and the growth at 1 µM [15] was 85%.
